The text below walks through data of PubChem BioAssay (NCI).

The structures appear in SMILES notation.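 Step 1: Grow cells in 96-well plates. Step 2: Expose to compound for 48 hours at 5 concentrations. Step 3: Interpolate endpoints linearly; if unreached, use highest concentration. Abbreviation: GI50, concentration required for 50% inhibition of growth. At the TGI there is no net growth.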 A value given as a limit tells only on which side of the number the result lay.

Test systems include OVCAR-8 ovarian; EKVX NSCLC; K-562 leukemia; UACC-62 melanoma; HCC-2998 colon; NCI-H460 lung; OVCAR-3 ovarian; A498 renal; IGROV1 ovarian; SF-268 CNS.
Common to all, as to assay: DTP human tumour cell line panel, 48 h

By TGI is commonly meant the concentration at which net growth stops. Read a high TGI as lower sensitivity of the cells. With `c1cncc(C2c3[nH]c4ccccc4c3CCN2CCCN2CCCCC2)c1` (stereo not drawn), the TGI in the experiment on OVCAR-8 ovarian, with EKVX NSCLC, with K-562 leukemia, in the experiment with UACC-62 melanoma, in the experiment on HCC-2998 colon and in the experiment on NCI-H460 lung was > 100 µM throughout. In addition, the TGI in the experiment with OVCAR-3 ovarian, with A498 renal and in the experiment on IGROV1 ovarian was > 100 µM throughout.

Take `O=c1[nH]cnc2c(C3OC(CO)C(O)C3O)[nH]nc12` (stereo not drawn): the TGI in the experiment on OVCAR-8 ovarian was 70.3 µM; in the experiment with EKVX NSCLC, > 100 µM; in the experiment on K-562 leukemia, > 100 µM; with UACC-62 melanoma it was > 100 µM; in the experiment with HCC-2998 colon, > 100 µM; in the experiment on NCI-H460 lung, > 100 µM. For the same compound, the TGI in the experiment on OVCAR-3 ovarian was 53.5 µM; in the experiment on A498 renal it was > 100 µM; in the experiment on IGROV1 ovarian it was > 100 µM.

As to `CCOC(=O)C1Cc2c(ccc(OC)c2OC)C(=O)C1N` (stereo not drawn), the TGI in the experiment on OVCAR-8 ovarian was > 100 µM; in the experiment with EKVX NSCLC, 36.1 µM; with K-562 leukemia it was > 100 µM; in the experiment on UACC-62 melanoma, > 100 µM; in the experiment with HCC-2998 colon it was > 100 µM; in the experiment on NCI-H460 lung it was > 100 µM. For the same compound, the TGI in the experiment with OVCAR-3 ovarian and in the experiment on IGROV1 ovarian was > 100 µM in each case.

For the compound `Cc1cc(C)c(C(=O)O)c(N)c1O`, the TGI in the experiment on OVCAR-8 ovarian, with EKVX NSCLC, in the experiment on K-562 leukemia, with UACC-62 melanoma, with SF-268 CNS and with HCC-2998 colon was > 100 µM in each case. The TGI in the experiment with OVCAR-3 ovarian, in the experiment with A498 renal and in the experiment on IGROV1 ovarian was > 100 µM in each case.

On to `COc1cccc(/C=C(/C(=O)O)c2cc(OC)c(OC)c(OC)c2)c1`, for which the TGI with OVCAR-8 ovarian, in the experiment with EKVX NSCLC, in the experiment with K-562 leukemia, with UACC-62 melanoma, with SF-268 CNS and in the experiment with NCI-H460 lung was > 100 µM throughout. Besides, the TGI with OVCAR-3 ovarian, in the experiment with A498 renal and in the experiment with IGROV1 ovarian was > 100 µM in each case.

By GI50 is commonly meant the concentration giving 50% growth inhibition. As to `COc1cc2[nH]c(C(=O)c3cc(OC)c(OC)c(OC)c3)c(N)c2cc1C#CCO`, the GI50 was 0.533 µM in the experiment on OVCAR-8 ovarian; 0.347 µM in the experiment with K-562 leukemia; 7.56 µM in the experiment on UACC-62 melanoma; 0.957 µM with SF-268 CNS; 0.775 µM in the experiment on HCC-2998 colon; 0.394 µM in the experiment with NCI-H460 lung. Further, the GI50 is 0.0491 µM in the experiment on OVCAR-3 ovarian, 0.23 µM in the experiment on A498 renal and 0.795 µM in the experiment with IGROV1 ovarian. The TGI in the experiment on OVCAR-8 ovarian is > 100 µM; in the experiment with K-562 leukemia, > 100 µM; in the experiment with UACC-62 melanoma, > 100 µM; with SF-268 CNS, 73.4 µM; in the experiment on HCC-2998 colon it was > 100 µM; with NCI-H460 lung it was > 100 µM. The TGI worked out at 0.243 µM in the experiment on OVCAR-3 ovarian, 2.14 µM in the experiment with A498 renal and 68.8 µM in the experiment on IGROV1 ovarian.

Consider `OCCN1CCN(CCO)Cc2ccccc2OCCOc2ccccc2C1`, for which the TGI in the experiment with OVCAR-8 ovarian, in the experiment with EKVX NSCLC, in the experiment with K-562 leukemia, with SF-268 CNS, in the experiment with NCI-H460 lung and in the experiment on OVCAR-3 ovarian was > 100 µM each time. In addition, the TGI in the experiment on A498 renal and in the experiment with IGROV1 ovarian was > 100 µM throughout.

In the case of `COc1cc(C(=O)C/C(CCC(=O)Nc2ccccc2[N+](=O)[O-])=N\NC(=O)C(N)=O)ccc1O`, the concentration for total growth inhibition (TGI) in the experiment with OVCAR-8 ovarian, in the experiment on EKVX NSCLC, with K-562 leukemia, in the experiment with UACC-62 melanoma, with SF-268 CNS and in the experiment with NCI-H460 lung was > 100 µM each time. The TGI in the experiment with OVCAR-3 ovarian and in the experiment with IGROV1 ovarian was > 100 µM each time.

Turning to `CC1(C)CCC(=O)c2c(O)ccc(O)c21`, the TGI with OVCAR-8 ovarian, in the experiment with EKVX NSCLC, with K-562 leukemia, in the experiment with UACC-62 melanoma, in the experiment with SF-268 CNS and with HCC-2998 colon was > 100 µM each time. The TGI in the experiment on OVCAR-3 ovarian and with IGROV1 ovarian was > 100 µM in each case.

As to `CCC[CH2][Sn]1([CH2]CCC)[O]C(c2ccccn2)S(=O)(=O)[O]1` (stereo not drawn), the GI50 in the experiment with OVCAR-8 ovarian is 2.06 µM; in the experiment with EKVX NSCLC, 2.29 µM; in the experiment on K-562 leukemia, 2.14 µM; with UACC-62 melanoma, 1.84 µM; in the experiment with HCC-2998 colon it was 4.63 µM; in the experiment on NCI-H460 lung, 16.8 µM. In addition, the values for the GI50 with OVCAR-3 ovarian, with A498 renal and in the experiment with IGROV1 ovarian were 3.06 µM, 18.1 µM and 6.47 µM, respectively. Further, the TGI amounted to 4.79 µM in the experiment on OVCAR-8 ovarian; 5.61 µM in the experiment on EKVX NSCLC; 6.72 µM in the experiment with K-562 leukemia; 3.78 µM in the experiment with UACC-62 melanoma; 18.3 µM with HCC-2998 colon; 30.4 µM in the experiment with NCI-H460 lung. The TGI in the experiment on OVCAR-3 ovarian is 11.6 µM; with A498 renal, 32.1 µM; with IGROV1 ovarian it was 20.3 µM.

`CC[O-].CC[O-].[O-]c1ccccc1C=Nc1ccccc1.[O-]c1ccccc1C=Nc1ccccc1.[Ti+4]`: the GI50 in the experiment with OVCAR-8 ovarian was 97.3 µM; in the experiment on EKVX NSCLC it was > 100 µM; in the experiment on K-562 leukemia, 0.789 µM; with UACC-62 melanoma it was > 100 µM; in the experiment on SF-268 CNS it was > 100 µM; in the experiment with HCC-2998 colon, 82.9 µM. Moreover, the GI50 with NCI-H460 lung, in the experiment on OVCAR-3 ovarian and in the experiment on IGROV1 ovarian was > 100 µM throughout. The TGI with OVCAR-8 ovarian, in the experiment with EKVX NSCLC, in the experiment on K-562 leukemia, with UACC-62 melanoma, in the experiment on SF-268 CNS and in the experiment on HCC-2998 colon was > 100 µM throughout. For the same compound, the TGI in the experiment on NCI-H460 lung, in the experiment on OVCAR-3 ovarian and with IGROV1 ovarian was > 100 µM each time.

Turning to `CCN1C(C)=NC2C(=O)c3ccccc3C(=O)C21` (stereo not drawn), the TGI in the experiment on OVCAR-8 ovarian is > 100 µM; with K-562 leukemia, > 100 µM; in the experiment with UACC-62 melanoma, > 100 µM; in the experiment on SF-268 CNS it was > 100 µM; in the experiment with HCC-2998 colon, 79.3 µM; in the experiment on NCI-H460 lung it was > 100 µM. Further, the TGI in the experiment on OVCAR-3 ovarian, in the experiment on A498 renal and with IGROV1 ovarian was > 100 µM throughout.

Turning to `O=C1CN(c2cccc(C(F)(F)F)c2)C(=O)CN1NCNN1CC(=O)N(c2cccc(C(F)(F)F)c2)CC1=O`, the TGI in the experiment with OVCAR-8 ovarian, with EKVX NSCLC, with K-562 leukemia, with SF-268 CNS, in the experiment on HCC-2998 colon and with NCI-H460 lung was > 100 µM in each case. The TGI with IGROV1 ovarian was > 100 µM.
